Assay [1] concerns the target Myosin light chain kinase, smooth muscle (Gallus gallus, UniProt P11799). The assay can be described thus: Inhibitory constant against MLCK.
The nature of assay [2]: Inhibitory constant against CK1. Set-up: species or system Rattus norvegicus.
A further assay concerns the target Casein kinase II (Homo sapiens, UniProt P19784+P67870+P68400). The assay can be described thus: Inhibitory constant against CK2. Type of assay: protein-complex assay, Oryctolagus cuniculus.
The nature of assay [3]: Inhibitory constant against cGPK (PKG). Set-up: species or system Sus scrofa.
The target of the next assay is Protein kinase C (PKC). The assay can be described thus: Inhibitory constant against PKC. Type of assay: protein assay, Oryctolagus cuniculus.
Assay [4] deals with cAMP-dependent protein kinase alpha-catalytic subunit (Oryctolagus cuniculus, UniProt Q95J97). The assay can be described thus: Inhibitory constant against cAPK (PKA).

As usually defined, the Ki is a dissociation constant, usually derived from enzyme kinetics or from competition with a known ligand. Low values mean a stronger hold on the target, high ones a looser hold on the target.

Myosin light chain kinase, smooth muscle, sequence (P11799 whole entry): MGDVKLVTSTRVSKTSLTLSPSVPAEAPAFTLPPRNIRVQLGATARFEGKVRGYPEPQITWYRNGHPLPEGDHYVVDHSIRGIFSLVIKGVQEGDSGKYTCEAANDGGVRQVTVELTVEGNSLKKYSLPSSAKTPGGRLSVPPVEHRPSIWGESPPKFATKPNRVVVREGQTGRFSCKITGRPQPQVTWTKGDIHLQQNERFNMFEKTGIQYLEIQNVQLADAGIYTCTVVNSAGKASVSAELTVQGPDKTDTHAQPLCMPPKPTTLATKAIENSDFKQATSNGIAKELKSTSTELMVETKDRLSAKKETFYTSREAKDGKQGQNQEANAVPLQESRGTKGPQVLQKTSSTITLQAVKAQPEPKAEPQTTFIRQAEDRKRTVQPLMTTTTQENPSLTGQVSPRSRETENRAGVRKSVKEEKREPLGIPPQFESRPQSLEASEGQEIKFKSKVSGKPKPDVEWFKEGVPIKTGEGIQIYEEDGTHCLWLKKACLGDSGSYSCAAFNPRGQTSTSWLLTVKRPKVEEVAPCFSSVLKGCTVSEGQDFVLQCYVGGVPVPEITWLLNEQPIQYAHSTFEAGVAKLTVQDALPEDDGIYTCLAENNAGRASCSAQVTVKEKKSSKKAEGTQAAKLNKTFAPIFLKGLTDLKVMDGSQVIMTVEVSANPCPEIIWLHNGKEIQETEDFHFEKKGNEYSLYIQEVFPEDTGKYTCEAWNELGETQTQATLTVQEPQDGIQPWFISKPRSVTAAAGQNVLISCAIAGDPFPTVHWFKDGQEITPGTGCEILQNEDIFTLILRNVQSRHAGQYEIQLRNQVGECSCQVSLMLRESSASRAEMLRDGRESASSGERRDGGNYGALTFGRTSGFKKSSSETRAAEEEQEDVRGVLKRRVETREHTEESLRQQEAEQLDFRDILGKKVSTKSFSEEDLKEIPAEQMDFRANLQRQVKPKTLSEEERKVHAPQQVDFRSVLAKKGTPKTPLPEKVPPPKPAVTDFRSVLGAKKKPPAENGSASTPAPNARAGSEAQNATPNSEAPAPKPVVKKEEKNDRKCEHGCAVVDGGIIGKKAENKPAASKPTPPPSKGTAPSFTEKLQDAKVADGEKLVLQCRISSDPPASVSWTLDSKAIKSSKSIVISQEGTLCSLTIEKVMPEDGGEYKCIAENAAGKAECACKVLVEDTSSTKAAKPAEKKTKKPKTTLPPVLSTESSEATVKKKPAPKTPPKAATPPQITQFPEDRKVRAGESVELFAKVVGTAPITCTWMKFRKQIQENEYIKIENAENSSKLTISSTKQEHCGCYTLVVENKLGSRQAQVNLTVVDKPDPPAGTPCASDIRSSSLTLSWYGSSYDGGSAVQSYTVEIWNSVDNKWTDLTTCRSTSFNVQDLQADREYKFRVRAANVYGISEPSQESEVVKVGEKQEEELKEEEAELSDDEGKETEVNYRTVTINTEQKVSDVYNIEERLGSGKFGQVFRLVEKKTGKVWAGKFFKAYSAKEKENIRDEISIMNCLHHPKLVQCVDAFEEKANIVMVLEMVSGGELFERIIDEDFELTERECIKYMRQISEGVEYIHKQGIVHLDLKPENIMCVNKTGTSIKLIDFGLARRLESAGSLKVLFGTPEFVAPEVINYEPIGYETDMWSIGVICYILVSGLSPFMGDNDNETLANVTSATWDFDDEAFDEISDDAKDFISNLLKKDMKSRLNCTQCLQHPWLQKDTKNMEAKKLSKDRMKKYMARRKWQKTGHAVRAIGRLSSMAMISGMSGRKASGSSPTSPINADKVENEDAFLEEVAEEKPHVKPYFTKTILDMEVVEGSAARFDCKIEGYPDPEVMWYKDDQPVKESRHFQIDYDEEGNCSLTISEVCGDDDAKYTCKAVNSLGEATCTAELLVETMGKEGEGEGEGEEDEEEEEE
Casein kinase II, sequence (P67870 whole entry): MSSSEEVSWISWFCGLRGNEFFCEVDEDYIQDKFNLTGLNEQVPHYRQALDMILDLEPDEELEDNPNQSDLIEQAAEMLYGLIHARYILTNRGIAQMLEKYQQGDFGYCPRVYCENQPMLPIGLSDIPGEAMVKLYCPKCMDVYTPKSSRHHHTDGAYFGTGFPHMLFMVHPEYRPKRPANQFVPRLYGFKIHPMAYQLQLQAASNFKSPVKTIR
Casein kinase II, sequence (P68400 whole entry): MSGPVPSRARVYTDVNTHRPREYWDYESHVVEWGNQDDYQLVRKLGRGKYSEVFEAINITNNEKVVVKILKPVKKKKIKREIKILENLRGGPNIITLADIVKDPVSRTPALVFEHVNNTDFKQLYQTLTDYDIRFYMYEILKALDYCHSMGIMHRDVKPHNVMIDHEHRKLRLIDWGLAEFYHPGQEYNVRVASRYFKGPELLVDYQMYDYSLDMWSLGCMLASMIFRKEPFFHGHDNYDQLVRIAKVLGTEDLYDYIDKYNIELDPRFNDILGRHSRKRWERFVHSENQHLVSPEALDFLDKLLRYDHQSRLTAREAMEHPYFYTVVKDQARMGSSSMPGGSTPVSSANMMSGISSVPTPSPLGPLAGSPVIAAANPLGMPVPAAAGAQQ
Casein kinase II, sequence (P19784 whole entry): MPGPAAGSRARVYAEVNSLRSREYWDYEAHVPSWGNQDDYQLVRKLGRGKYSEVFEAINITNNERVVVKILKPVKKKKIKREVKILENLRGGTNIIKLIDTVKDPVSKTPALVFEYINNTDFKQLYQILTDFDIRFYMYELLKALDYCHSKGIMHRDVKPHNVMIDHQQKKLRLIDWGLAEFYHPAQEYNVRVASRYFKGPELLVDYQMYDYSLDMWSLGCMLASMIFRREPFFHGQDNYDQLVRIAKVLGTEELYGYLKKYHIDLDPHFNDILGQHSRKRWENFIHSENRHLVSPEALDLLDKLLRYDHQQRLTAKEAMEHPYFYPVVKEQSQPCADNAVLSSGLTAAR

As for `O=S(=O)(NCCNC/C=C/c1ccc(Br)cc1)c1cccc2cnccc12`, in assay [1], the Ki amounted to 28.3 µM.

In the case of `CNCCNS(=O)(=O)c1cccc2cnccc12`, the Ki in assay [2] was determined as 133 µM; in assay [1], 68 µM; on Casein kinase II it was 950 µM; in assay [3], 0.48 µM; on Protein kinase C (PKC), 15 µM; in assay [4] it was 1.2 µM.

`C[C@H]1CNCCN1S(=O)(=O)c1cccc2cnccc12`: the Ki turned out to be 100 µM in assay [2]; 97 µM in assay [1]; 780 µM at Casein kinase II; 5.8 µM in assay [3]; 6 µM at Protein kinase C (PKC).
